# Laboratory results published in patent US4183954A, “Benzoic acid derivatives and therapeutic composition containing the same” (Seuref A.G., priority 1977, dated 1980).
# Tests used:
# [1] = test system: anaphylactic reaction and death induced in guinea-pigs sensitized with horse serum; assay: Antianaphylactic activity; assay type: in vivo
# Method: Administration to […] of the test compound at a dosage of 60 mg/kg by the oral route or of 50 mg/kg by the intraperitoneal route inhibits the anaphylactic reaction and the death induced in guinea-pigs sensitized with horse serum.
# choleresis = assay: Choleretic activity; assay type: in vivo; conditions: rats
# [2] = test system: oedema of the rat's paw induced by dextran; assay: Antiphlogistic activity, oedema of the rat's paw induced by dextran; assay type: in vivo
# [3] = test system: granulomatous reaction induced by the sub-cutaneous penetration of foreign bodies; assay: Experimental granuloma test; assay type: in vivo
# [4] = test system: hepatic steatosis and hypercholesterolemia induced by Handler's steatogenic diet; assay: Anti-steatotic activity (Handler's steatogenic diet); assay type: in vivo; conditions: rats, 50 mg/kg daily
# Method: Administration of the test material to rats at a daily dosage of 50 mg/kg inhibits the hepatic steatosis and the hypercholesterolemia induced by Handler's steatogenic diet.
# [5] = Chronic toxicity test, 3 months; assay type: in vivo, rats
# Source text: The chronic toxicity tests confirmed the low toxicity of the product.
# [6] = test system: oedema of the rat's paw induced by carageenin; assay: Antiphlogistic activity, oedema of the rat's paw induced by carageenin; assay type: in vivo
# [7] = Acute toxicity (LD50), method of Lichtfield and Wilcoxon, rats; conditions: rat, in vivo
# [8] = test system: hypercholesterolemia induced by Twin-Triton; assay: Hypocholesterolemic activity (Twin-Triton-induced hypercholesterolemia); assay type: in vivo; conditions: rats, 200 mg/kg Twin-Triton i.p.
# [9] = test system: experimental phlogistic reaction; assay: Antiphlogistic activity, experimental phlogistic reaction; assay type: in vivo; conditions: rats, intraperitoneal or oral, 50 mg/kg to 300 mg/kg
# Method: Intraperitoneal or oral administration of the test material at dosages within the range of from 50 mg/kg to 300 mg/kg inhibits the experimental phlogistic reaction induced in rats.
# [10] = Acute toxicity (LD50), method of Lichtfield and Wilcoxon, mice; conditions: mouse, in vivo
smiles,measurement,setting,value
"CC(C)(Oc1cccc2ccccc12)C(=O)Nc1ccc(C(=O)O)cc1 [Compound 1, p-[α-(α-naphthoxy)isobutyramido]benzoic acid]",inhibition of anaphylactic reaction and death,[1]; 50 mg/kg intraperitoneal,inhibits
same,inhibition of anaphylactic reaction and death,[1]; 60 mg/kg oral,inhibits
same,elimination of biliary pigments or cholesterol,choleresis,increase concerns the elimination of either the biliary pigments or cholesterol
same,choleresis,"choleresis; intraperitoneal, 20 mg/kg",significant increase of choleresis
same,choleresis,"choleresis; oral, 100 mg/kg",significant increase of choleresis
same,increase of the choleresis compared with dehydrocholic acid,choleresis; versus dehydrocholic acid,more substantial and more extended than that induced by dehydrocholic acid
same,inhibition of paw oedema induced by dextran,[2],inhibits
same,inhibition of granulomatous reaction,[3],inhibits
same,inhibition of hepatic steatosis,[4],inhibits
same,inhibition of hypercholesterolemia,[4],inhibits
same,intolerance and toxicity,"[5]; 50 mg/kg, 3 months",did not induce any intolerance and any toxicity
same,"blood, glycemia, transaminases, urinary excretion and azotemia","[5]; 50 mg/kg, 3 months, treated rats, beginning and end of treatment",failed to disclose any significant change or pathological modification
same,chronic toxicity (overall),[5]; chronic toxicity tests,low toxicity
same,inhibition of paw oedema induced by carageenin,[6],inhibits
same,LD50,"[7]; ip, intraperitoneal",425 mg/kg
same,LD50,[7]; oral,2200 mg/kg
same,inhibition of hypercholesterolemia,[8]; 100 mg/kg intraperitoneal,inhibits
same,inhibition of hypercholesterolemia,[8]; 300 mg/kg oral,inhibits
same,inhibition of experimental phlogistic reaction,[9],inhibits
same,LD50,"[10]; ip, intraperitoneal",395 mg/kg
same,LD50,[10]; oral,2500 mg/kg
